Assay results from patent US20220062340A1, “IMMUNOTHERAPEUTIC METHODS AND COMPOSITIONS” (KING'S COLLEGE LONDON, priority 2018, published 2022).

Legend:
[1] = test system: integrin α4β7 on Treg surface; test: Induction of integrin α4β7 on bulk Treg surface by RARα agonists (FIG. 6); type: cell-based; details: bulk CD4+CD25+CD127− Tregs, 12 days stimulation, reducing agonist concentrations
Description: Bulk Tregs (CD4+CD25+CD127−) Tregs (50,000 per well) were expanded in vitro with reducing concentrations of the agonists. Culture conditions: 2 aCD3/aCD28 beads/cell, 1000IU/mL IL-2, 0.1 nM Rapamycin+Agonist in X-vivo 15. Following 12 days stimulation, cells were stained for CD4, CD25, CD127, FOXP3, Integrin a4, Integrin b7, CD15s, CD161 and acquired on a BD symphony flow cytometer. Data was analysed in Flowjo and Prism.

integrin α4β7 on Tregs = test: α4β7 expression on ex vivo expanded CD45RA+ Tregs from CD patients (flow cytometry); type: cell-based, human; details: CD4+CD25hiCD127loCD45RA+ Tregs cultured with rapamycin and high dose IL-2 plus the agonist; mean ± SD
Description: “Complete X-VIVO-15” (Lonza, Walkersville, MD) was used for ex vivo Treg expansion, Treg cytokine challenge experiments and Treg suppression assays. This was supplemented with 100 nM or 10 nM Rapamycin and all-trans retinoic acid (ATRA) 2 μM or 1 nM, or Rapamycin and RAR568 1 nM.
(§1) FACS-sorted Treg populations were plated at 1×10^6 or 0.5×10^6 in X-VIVO-15 medium and activated with anti-CD3/anti-CD28 coated beads (Dynabeads®, Invitrogen, Paisley, UK) at 1:1 bead: cell ratio. Rapamycin was added at day 0 of culture at a final concentration of 100 nM/L +/−ATRA 1 nM/L or RAR568 1 nM/L. Next, 1,000 IU/ml recombinant human IL-2 (rhlL-2) (Proleukin®, Novartis, Camberley, UK) was added at day 5 of culture. Cells were re-stimulated every 10-12 days and expanded for a total of 24-30 days. The phenotype and suppressive ability were assessed at the end of the culture period.
Flow cytometry panels have been designed to assess the subtypes of regulatory T cells in patients with CD as well as their expression of gut homing molecules. Gating was performed based on natural populations when assessing for CD4^+CD25^highCD127low populations, as well as for CD45RA^+ Treg populations. Additionally, to minimize bias in the assessment of expression of gut homing markers and transcription factors, a fluorochrome minus one (FMO) panel was added for each marker of interest in each experiment that was performed. […]

Effector T cells (Teff) = test: Treg suppression assay (proliferation of CFSE-labelled Teff); type: cell-based, human; details: lowest (8:1) Teff:Treg titration, FIG. 2e
Description: Effector T cells (Teff) were labelled with carboxyfluorescein succinimidyl ester (CFSE, Invitrogen) according to standard protocols. Cells were washed with phosphate buffered saline (PBS) to remove excess protein. Cells were then incubated with a 1 μM/L CFSE solution in the dark at room temperature for 4 minutes. The reaction was then quenched with 9 ml of complete medium.
Teff were activated with anti-CD3/anti-CD28 micro beads at a bead: Teff ratio of 0.02:1. 1×10^5 Teff were then cultured either alone or with Tregs in serial dilutions. The ratios of Teff: Treg were 1:1, 2:1, 4:1, and 8:1. This was done in X-VIVO-15 and proliferation rates were assessed by flow cytometry after 5 days of incubation.
Percentage suppression (S) of proliferation was calculated using the following formula:
Where c=percentage of proliferating precursors in the presence of Tregs and d=percentage of proliferating precursors in the absence of Tregs.

FOXP3 in Tregs = test: FOXP3 expression of ex vivo expanded Tregs; type: cell-based, human; details: Tregs expanded in the presence of the agonist
Description: as §1
(§2) Flow cytometry panels have been designed to assess the subtypes of regulatory T cells in patients with CD as well as their expression of gut homing molecules. Gating was performed based on natural populations when assessing for CD4^+CD25^highCD127low populations, as well as for CD45RA^+ Treg populations. Additionally, to minimize bias in the assessment of expression of gut homing markers and transcription factors, a fluorochrome minus one (FMO) panel was added for each marker of interest in each experiment that was performed.

Ex vivo expanded Tregs = test: IL-17 and IFNγ production under pro-inflammatory cytokine challenge (ELISA); type: cell-based, human; details: Tregs expanded ex vivo in the presence of the agonist, FIG. 2f
Description: Cytokine concentrations were measured using the Ready-SET-Go sandwich ELISA kits from eBioscience.
Ex vivo expanded Tregs were activated with CD3/CD28 beads at a 1:20 ratio and cultured at 10^6cells/m1 in X-VIVO for 5 days at 37° C./5% CO2, supplemented with the following cytokine cocktail: A) IL-2 (10 IU/mL, Proleukin); (B) IL-2, IL-1 (10 ng/mL), IL-6 (4 ng/mL) and transforming growth factor-β (TGF-β (5 ng/mL), IL-21 (25 ng/mL), IL-23 (25 ng/mL) (all R&D Systems). Supernatant IL-17 and interferon gamma (IFNγ) concentrations were measured by ELISA.

integrin β7 on Tregs = test: Dose response of integrin β7 induction on expanded Tregs; type: cell-based; details: Homo sapiens; Tregs in in vitro culture, FIG. 2c; read-out: EC50 to induce the expression of integrin β7
Description: as §1, §2

Tregs from CD patients = test: Gene array of expanded Tregs from CD patients; type: cell-based, human
Description: Gene array analyses were carried out using Partek® software with a 1-way ANOVA to assess for differential gene expression.
1) RNA extraction was performed using Qiagen RNEasy mini/micro kits as per manufacturer's instructions. The samples were checked for RNA quality using the Agilent 2100 Bioanalyzer and quantified using the Nanodrop (ND-1000 Spectrophotometer). Samples which passed QC (RIN>8) were chosen such that input amount of each sample was 3 ng.
2) SPIA cDNA was generated using the “Ovation Pico WTA System V2” kit from Nugen, following the manufacturer's instructions.
3) The SPIA cDNA was subjected to a QC check to assess quality (Agilent 2100 Bioanalyzer) and quantity (Nanodrop ND-1000 Spectrophotometer) for the next stage.
4) The SPIA cDNA was fragmented and Biotin-labelled using the “Encore Biotin Module” from Nugen according to the manufacturer's instructions and passed through QC checks to assess fragmentation size (Agilent 2100 Bioanalyzer).
6) Hybridization cocktails were prepared of the fragmented labelled-cDNA according to Nugen's recommendations and hybridized at 45° C. overnight in an oven.
7) The arrays were washed and stained using wash protocol FS450_0002 (Affymetrix protocol recommended for Human Gene 2.0 Arrays on the GeneChip Fluidics station 450.
8) The arrays were scanned using the Affymetrix GeneChip Scanner.
Gene expression analyses were performed on Tregs from CD patients expanded in the presence of Rapa+ATRA, Rapa+RAR568 or rapamycin only (n=3 in each group). […] CD161 has previously been described as a marker of T helper (Th) 17-like Tregs^32. This was not observed in the RAR568-treated group. […] IL-18 Receptor 1 and STAT4 are responsible for Th1 lineage commitment and IFNγ production, both have been independently identified as IBD disease related polymorphisms on GWAS^33-36. CD38 has been identified as a marker associated with mature T cells, signaling reduced proliferation, but an increased ability to produce pro-inflammatory cytokines such as IFNγ^37. Ligation of GPR174 negatively affects Treg accumulation and function^38. No clear difference in transcripts for canonical pathways were identified when ATRA treated cells were compared with RAR568 treated cells.
To assess for off target RARγ effects, we compared the gene expression profiles of RAR568 and ATRA treated cells to a published dataset of RARγ target genes^39. […] Given the efficacy at inducing α4β7 and lack of off target effects, RAR568 fulfilled the target product profile for an agent that could be used for ex vivo Treg expansion for cell-based therapy purposes. Therefore, we probed this effect of RAR568 on Tregs from CD patients in functional in vitro and in vivo trafficking assays.

MAdCAM-1 = test: In-vitro trafficking assay, MAdCAM-1 coated Ibidi flow chamber; type: cell-based, human; details: cells treated with monoclonal antibody to integrin α4β7, FIG. 4
Description: Ibidi (Martinsreid, Germany) μ-Slides VI″ were coated with recombinant human MAdCAM-1 (R&D Systems, Minneapolis, Minn.), at a concentration of 10μg/ml and incubated overnight. Cells from two CD patients that had previously undergone ex vivo expansion under two parallel conditions (Rapa and Rapa+RAR568) and had been frozen in liquid nitrogen were defrosted and rested overnight. Rested cells were then activated with rhCCL25 (R&D systems) and passed through the coated Ibidi flow chamber at a rate of 1 dyne/cm^2. The total number of cells, as well as those rolling, adherent and crawling was quantified from six randomly selected fields of view per treatment.
In order to assess the physiological relevance of the induction of α4β7 expression by RAR568, treated and untreated Tregs from CD patients were passed through a MAdCAM-1 coated flow chamber (FIG. 10). The total number of cells adherent to the chamber, as well as their stages of rolling, adhesion and crawling, were compared to cells that were expanded under standard conditions.

With `CC1(C)CCC(C)(C)c2cc(C(=O)Nc3ccc(C(=O)O)cc3)ccc21` [AM580] the “induction of integrin α4β7 on Treg surface” value [1] was “comparable effects”.

`CC1=C(/C=C/C(C)=C/C=C/C(C)=C/C(=O)O)C(C)(C)CCC1` [ATRA, all-trans retinoic acid, reference compound] was tested, and the “α4β7 expression of expanded Tregs” value (integrin α4β7 on Tregs) was 74.21±25.89, the “Suppressive ability of expanded Tregs” value (Effector T cells (Teff)) was “became less suppressive at the lowest titration” and the “FOXP3 expression of expanded Tregs” value (FOXP3 in Tregs; mean ± SD) was 86.15±19.88%. For the same compound, the “FOXP3 expression, range” value (FOXP3 in Tregs; range) was 40.2-99.7, the “IFNγ production following pro-inflammatory cytokine challenge” value (Ex vivo expanded Tregs) was “did not produce” and the “IL-17 production following pro-inflammatory cytokine challenge” value (Ex vivo expanded Tregs) was “did not produce”. For the same compound, the EC50 (integrin β7 on Tregs) was 1.5 nM, the “transcripts for CD161” value (Tregs from CD patients; compared to rapamycin only, n=3) was “significant increase” and the “increase in the expression of STAT4, IL18R1, CD38 and GPR174” value (Tregs from CD patients; compared to rapamycin only, p<0.05, FIG. 3a) was over 2 fold. The “RARγ target genes upregulated” value (Tregs from CD patients; off target RARγ effects, compared to published dataset, FIG. 3b) was “Eleven”.

In the case of `CC1(C)CCC(C)(C)c2cc(NC(=O)c3ccc(C(=O)O)cc3)ccc21` [AM80, tamibarotene], the “induction of integrin α4β7 on Treg surface” value [1] is reported as “comparable effects”.

In the case of “Vedolizumab: monoclonal antibody to integrin α4β7”, the “cell migration of RAR568-treated Tregs in MAdCAM-1 coated flow chamber” value (MAdCAM-1) is reported as “All stages of cell migration were blocked”.
